5 compounds from ChEMBL document CHEMBL3585331, “Recent advances for FLAP inhibitors” (Bioorg Med Chem Lett, 2015) can be followed below.

The test system of experiment [1] is Blood. Put plainly: Inhibition of A23187-induced LTB4 production in human whole blood pre-incubated for 15 mins before A23187 stimulation for another 15 mins. The experiment is classed as functional, tissue-based.
The test system of experiment [2] is Blood. Kind of experiment: Inhibition of LTB4 production in human whole blood. The experiment is classed as functional, tissue-based.
For experiment [3], the target named is T1, Arachidonate 5-lipoxygenase-activating protein (Homo sapiens, UniProt P20292).
T1 sequence (P20292 whole entry): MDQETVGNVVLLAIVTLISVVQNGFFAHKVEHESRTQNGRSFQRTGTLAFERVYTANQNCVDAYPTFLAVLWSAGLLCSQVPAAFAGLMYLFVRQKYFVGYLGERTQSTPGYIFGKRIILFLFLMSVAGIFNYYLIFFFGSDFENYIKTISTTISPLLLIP
Put plainly: Binding affinity to FLAP (unknown origin).

As usually defined, the IC50 is the concentration that inhibits the measured activity by half. A lower IC50 goes with inhibition by little substance. Compound `Nc1cnc(-c2ccc(C3CCC3)c(Oc3ncccn3)c2F)cn1` registered an IC50 in the experiment with Blood [1] of 66 nM.

For `CC(C)C(C)(c1ccc(-c2ccc(C(C)(C)O)nn2)cc1)c1ccc(OCc2ccccn2)cn1` (stereo unspecified), in the experiment on Blood [2], the IC50 was 12 nM.

As for `CC(C)(C)Sc1c(CC(C)(C)C(=O)O)n(Cc2ccc(Cl)cc2)c2ccc(OCc3ccc4ccccc4n3)cc12` [QUIFLAPON], the IC50 in experiment [3] was found to be 36 nM; in the experiment on Blood [2], 500 nM.

`CC(C)(O)CNC(=O)c1ccc(C2(c3ccc(-c4cnc(N)cn4)cc3)CCCO2)cn1` (stereo unspecified) gave an IC50 in the experiment with Blood [2] of 62 nM.

The compound `CC(C)Cc1ccc(C(C)c2nc3ccccc3n2Cc2ccccc2Cl)cc1` (stereo unspecified) had an IC50 in the experiment on Blood [2] of 120 nM.
